Source: ChEMBL document CHEMBL3046582, “Antifeedant activity of sesquiterpenes from celastraceae” (1997)
Active and inactive are the calls of the source. No cut-off for these calls is given here.

What was measured:
Spodoptera littoralis [1] = experiment: Insecticidal activity against newly ecdysed fifth-instar larval stage of Spodoptera littoralis in compound-pretreated lettuce leaf disks assessed as mortality at 3 hr post-drug exposure; format: functional
Spodoptera littoralis [2] = experiment: Antifeedant activity against newly ecdysed fifth-instar larval stage of Spodoptera littoralis in compound-pretreated lettuce leaf disks assessed as consumed area of leaf disks measured at 30 min intervals for 4-5 hr post-drug exposure by choice test; format: functional, organism-based
Spodoptera littoralis [3] = experiment: Antifeedant activity against newly ecdysed fifth-instar larval stage of Spodoptera littoralis in compound-pretreated lettuce leaf disks assessed as consumed area of leaf disks at 1 ug/cm'2 measured at 30 min intervals for 4-5 hr post-drug exposure by choice test; format: functional
Spodoptera littoralis [4] = experiment: Antifeedant activity against newly ecdysed fifth-instar larval stage of Spodoptera littoralis in compound-pretreated lettuce leaf disks assessed as consumed area of leaf disks at 0.1 ug/cm'2 measured at 30 min intervals for 4-5 hr post-drug exposure by choice test; format: functional
Spodoptera littoralis [5] = experiment: Antifeedant activity against newly ecdysed fifth-instar larval stage of Spodoptera littoralis in compound-pretreated lettuce leaf disks assessed as consumed area of leaf disks at 10 ug/cm'2 measured at 30 min intervals for 4-5 hr post-drug exposure by choice test; format: functional
Spodoptera littoralis [6] = experiment: Antifeedant activity against newly ecdysed fifth-instar larval stage of Spodoptera littoralis in compound-pretreated lettuce leaf disks assessed as consumed area of leaf disks at 0.01 ug/cm'2 measured at 30 min intervals for 4-5 hr post-drug exposure by choice test; format: functional

CCC(C)C(=O)OC (single isomer, unassigned; (+))
LD100 (Spodoptera littoralis [1]): inactive | Activity (Spodoptera littoralis [2]): inactive

CC(=O)O[C@@H]1[C@@H]2[C@@H](OC(C)=O)[C@@]3(OC2(C)C)[C@@](OC(C)=O)([C@@H](OC(C)=O)CC[C@]3(C)O)[C@@H]1OC(=O)c1ccccc1
FR50 (Spodoptera littoralis [3]): 0.2 | FR50 (Spodoptera littoralis [4]): 0.64 | FR50 (Spodoptera littoralis [5]): 0.03

O=C(OCC1CCCO1)c1ccccc1 (stereo not given)
LD100 (Spodoptera littoralis [1]): inactive | Activity (Spodoptera littoralis [2]): inactive

CC(=O)O[C@H]1C[C@](C)(O)[C@]23OC(C)(C)[C@H](C(=O)[C@@H](OC(=O)c4ccccc4)[C@]2(OC(C)=O)[C@H]1OC(C)=O)[C@H]3OC(C)=O
LD100 (Spodoptera littoralis [1]): 1 microg/cm2

OC1CCOC1 (racemic)
LD100 (Spodoptera littoralis [1]): inactive | Activity (Spodoptera littoralis [2]): inactive

CC[C@@H]1CCC(=O)O[C@H]2[C@H](OC(C)=O)[C@H](OC(C)=O)[C@@]3(OC(C)=O)[C@H](OC(C)=O)C(=O)[C@@H]4[C@@H](OC(C)=O)[C@]3(O[C@@]4(C)COC(=O)c3ccccc31)[C@@]2(C)O [ORTHOSPHENINE]
LD100 (Spodoptera littoralis [1]): 0.01 microg/cm2

CC(=O)O[C@H]1[C@@H]2[C@@H](OC(=O)c3cccnc3)[C@@]3(OC2(C)C)[C@@](C)([C@@H](OC(=O)c2ccccc2)CC[C@]3(C)O)[C@@H]1OC(C)=O
FR50 (Spodoptera littoralis [3]): 0.15 | FR50 (Spodoptera littoralis [4]): 0.45 | FR50 (Spodoptera littoralis [5]): 0.04

OCC1CCCO1 (stereo not given)
LD100 (Spodoptera littoralis [1]): inactive | Activity (Spodoptera littoralis [2]): inactive

OCC1CCOC1 (stereo not given)
LD100 (Spodoptera littoralis [1]): inactive | Activity (Spodoptera littoralis [2]): inactive

C/C=C(/C)C(=O)O[C@@H]1[C@@H]2[C@@H](OC(C)=O)[C@@]3(OC2(C)C)[C@@](OC(C)=O)([C@@H](OC(=O)c2ccccc2)CC[C@]3(C)O)[C@@H]1OC(=O)c1ccccc1
FR50 (Spodoptera littoralis [3]): 0.29 | FR50 (Spodoptera littoralis [5]): 0.12

C/C=C(/C)C(=O)O[C@@H]1[C@@H]2[C@@H](OC(C)=O)[C@@]3(OC2(C)C)[C@@](OC(C)=O)([C@@H](OC(C)=O)CC[C@]3(C)O)[C@@H]1OC(=O)c1ccccc1
FR50 (Spodoptera littoralis [3]): 0.2 | FR50 (Spodoptera littoralis [5]): 0.06

CC(=O)O[C@@H]1[C@@H]2[C@@H](OC(C)=O)[C@@]3(OC2(C)C)[C@](O)([C@@H]1OC(=O)c1ccccc1)[C@@H](OC(C)=O)[C@@H](C(C)=O)C[C@]3(C)O
FR50 (Spodoptera littoralis [3]): 0.66 | FR50 (Spodoptera littoralis [5]): 0.16

O=C(OC1CCOC1)c1cc([N+](=O)[O-])cc([N+](=O)[O-])c1 (racemic)
LD100 (Spodoptera littoralis [1]): inactive | Activity (Spodoptera littoralis [2]): inactive

CC(=O)O[C@H]1C[C@](C)(O)[C@]23OC(C)(C)[C@H]([C@@H](C(C)=O)[C@@H](OC(=O)c4ccccc4)[C@]2(OC(C)=O)[C@H]1OC(C)=O)[C@H]3OC(C)=O
FR50 (Spodoptera littoralis [3]): 0.24 | FR50 (Spodoptera littoralis [4]): 0.4 | FR50 (Spodoptera littoralis [5]): 0.05

CC(=O)O[C@H]1C[C@](C)(O)[C@]23OC(C)(C)[C@H]([C@@H](C(C)=O)[C@@H](OC(=O)c4ccccc4)[C@]2(OC(C)=O)[C@H]1OC(=O)c1ccccc1)[C@H]3O
FR50 (Spodoptera littoralis [3]): 0.19 | FR50 (Spodoptera littoralis [4]): 1.02 | FR50 (Spodoptera littoralis [5]): 0.1

CC(=O)O[C@@H]1[C@@H]2[C@@H](OC(C)=O)[C@]3(OC2(C)C)C(C)C[C@H](C(C)=O)[C@H](OC(C)=O)[C@@]3(O)[C@H]1OC(=O)c1ccccc1 (stereo not given in full)
FR50 (Spodoptera littoralis [3]): 0.71 | FR50 (Spodoptera littoralis [5]): 0.13

CC(=O)O[C@H]1C[C@](C)(O)[C@]23OC(C)(C)[C@H](C(=O)[C@@H](OC(=O)c4ccccc4)[C@]2(OC(C)=O)[C@H]1OC(=O)c1ccccc1)[C@H]3OC(C)=O
LD100 (Spodoptera littoralis [1]): 0.1 microg/cm2

COCCCC[C@@H]1[C@@H]2[C@@H](OC(C)=O)[C@@]3(OC2(C)C)[C@](OC(C)=O)([C@@H]1OC(=O)c1ccccc1)[C@@H](O)CC[C@]3(C)O
FR50 (Spodoptera littoralis [3]): 0.23 | FR50 (Spodoptera littoralis [4]): 0.57 | FR50 (Spodoptera littoralis [5]): 0.08

CC(=O)OC1CCOC1 (single isomer, unassigned; (+))
LD100 (Spodoptera littoralis [1]): inactive | Activity (Spodoptera littoralis [2]): inactive

CC(=O)OCC1CCOC1 (stereo not given)
LD100 (Spodoptera littoralis [1]): inactive | Activity (Spodoptera littoralis [2]): inactive

CC(=O)O[C@H]1C[C@](C)(O)[C@]23OC(C)(C)[C@H]([C@@H](OC(C)=O)[C@@H](OC(=O)c4ccccc4)[C@]2(OC(C)=O)C1)[C@H]3OC(C)=O
FR50 (Spodoptera littoralis [3]): 0.18 | FR50 (Spodoptera littoralis [4]): 1.1 | FR50 (Spodoptera littoralis [5]): 0.1

CC(=O)O[C@H]1CC[C@](C)(O)[C@]23OC(C)(C)[C@H](C[C@H](OC(=O)c4ccccc4)[C@]12OC(C)=O)[C@H]3OC(C)=O
FR50 (Spodoptera littoralis [3]): 0.12 | FR50 (Spodoptera littoralis [4]): 0.4 | FR50 (Spodoptera littoralis [5]): 0.11

COCCCC[C@@H]1[C@@H]2[C@@H](OC(C)=O)[C@@]3(OC2(C)C)[C@@](OC(C)=O)([C@@H](OC(C)=O)CC[C@]3(C)O)[C@@H]1OC(=O)c1ccccc1
FR50 (Spodoptera littoralis [3]): 0 | FR50 (Spodoptera littoralis [4]): 0.23 | FR50 (Spodoptera littoralis [6]): 0.69 | FR50 (Spodoptera littoralis [5]): 0

CC(=O)O[C@@H]1[C@H]2C[C@H](OC(=O)c3ccccc3)[C@]3(O)[C@@H](OC(C)=O)[C@@H](C(C)=O)CC(C)[C@@]13OC2(C)C (stereo not given in full)
FR50 (Spodoptera littoralis [3]): 0.54 | FR50 (Spodoptera littoralis [5]): 0.19

CCC(C)C(=O)OC (stereo in doubt; 54)
LD100 (Spodoptera littoralis [1]): inactive | Activity (Spodoptera littoralis [2]): inactive

O=C(OCC1CCCO1)c1cc([N+](=O)[O-])cc([N+](=O)[O-])c1 (stereo not given)
LD100 (Spodoptera littoralis [1]): inactive | Activity (Spodoptera littoralis [2]): inactive

CC(=O)O[C@H]1[C@H](OC(=O)c2ccccc2)[C@@]2(C)[C@@H](OC(=O)c3ccccc3)C[C@@H]3[C@@H](OC(C)=O)[C@]2(OC3(C)C)[C@@](C)(O)[C@H]1O [2BETA,3BETA,4BETA,TRIHYDROXYCELARBICO]
FR50 (Spodoptera littoralis [3]): 0.44 | FR50 (Spodoptera littoralis [5]): 0.24

O=C(OC1CCOC1)c1ccccc1 (racemic)
LD100 (Spodoptera littoralis [1]): inactive | Activity (Spodoptera littoralis [2]): inactive

CC(=O)OCC1CCCO1 (stereo not given)
LD100 (Spodoptera littoralis [1]): inactive | Activity (Spodoptera littoralis [2]): inactive

CC(=O)O[C@H]1CC[C@](C)(O)[C@]23OC(C)(C)[C@H]([C@@H](OC(=O)c4ccccc4)[C@@H](OC(=O)c4ccccc4)[C@]12OC(C)=O)[C@H]3OC(C)=O
FR50 (Spodoptera littoralis [3]): 0.4 | FR50 (Spodoptera littoralis [5]): 0.15

CC(=O)OC1CCOC1 (racemic)
LD100 (Spodoptera littoralis [1]): inactive | Activity (Spodoptera littoralis [2]): inactive

OC1CCOC1 (stereo in doubt; 46)
LD100 (Spodoptera littoralis [1]): inactive | Activity (Spodoptera littoralis [2]): inactive
